# Data from the supplement of paper PMC11208160.
# Assay: recombinant barcode read abundance after kanamycin selection (control-corrected) (log10(CPM+1)); higher = more efficient recombination; sequences stand for … in AGTGCAGAGAAAATCGGCCAGTTTTCTCTGCCTGCAGTCCGCATGCCGT…AGATTTATGCAGCGGACTGCCTTTCTCCCAAAGTGATAAACCGGACAGTATCATGGACCGGTTTTCCCGGTAATCCGTATTTGCAAGGTTGGTTTCACT; site = the 11-nt target
# In short: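 In a pooled screen in E. coli, targets were paired with target-binding loops of the IS621 bridge RNA. Each oligo carried a promoter, a target, a barcode and the first 104 bridge RNA bases driven by J23119, and was Gibson-cloned into a vector holding the remaining 73 bp and a T7-inducible recombinase before co-electroporation with a donor plasmid. Duplicate platings went onto chloramphenicol/ampicillin LB agar as the control or onto chloramphenicol/ampicillin/kanamycin with 0.1 mM IPTG. Recombination efficiency is the averaged, control-corrected count per million of barcodes at recombinant junctions, given as log10(CPM+1).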
# 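Also: IS621 recombinase and bridge RNA in Escherichia coli cells.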
row,Sequence,recombinant barcode read abundance (log10)
1,GCCCCGCCTTGGGTTCTAACCTGTTGCAG (site GCCGCGCCTCT),0.00897
2,GCCCCGCCTTGGGTTCTAACCTGTTGCAG (site GCCTCGCCTCT),0.0556
3,GCCCGGGCTTGGGTTCTAACCTGTTGCCG (site GCCAGGGCTCG),0.144
4,GCCCGGGCTTGGGTTCTAACCTGTTGCCG (site GCCCGGGCTCG),0.309
5,GCCCGGGCTTGGGTTCTAACCTGTTGCCG (site GCCGGGGCTCG),0.0496
6,GCCCGGGCTTGGGTTCTAACCTGTTGCCG (site GCCTGGGCTCG),0.0679
7,GCCCGTGCTTGGGTTCTAACCTGTTGCCT (site GCACGTGCTAG),0.377
8,GCCCGTGCTTGGGTTCTAACCTGTTGCCT (site GCCCGTGCTAG),1.31
9,GCCCGTGCTTGGGTTCTAACCTGTTGCCT (site GCGCGTGCTAG),0.177
10,GCCCGTGCTTGGGTTCTAACCTGTTGCCT (site GCTCGTGCTAG),0.0122
11,GCCCTGCCTTGGGTTCTAACCTGTTGCCT (site GCACTGCCTAG),0.705
12,GCCCTGCCTTGGGTTCTAACCTGTTGCCT (site GCCCTGCCTAG),1.43
13,GCCCTTGCTTGGGTTCTAACCTGTTGCCT (site GAACTTGCTAG),0.114
14,GCCCTTGCTTGGGTTCTAACCTGTTGCCT (site GCCCTTGCTAG),1.79
15,GCCGACACTTGGGTTCTAACCTGTTGCCT (site GCCGAAACTAG),0.0569
16,GCCGACACTTGGGTTCTAACCTGTTGCCT (site GCCGACACTAG),0.13
17,GCCGACACTTGGGTTCTAACCTGTTGCCT (site GCCGAGACTAG),0.284
18,GCCGACACTTGGGTTCTAACCTGTTGCCT (site GCCGATACTAG),0.17
19,GCCGAGTCTTGGGTTCTAACCTGTTGCTC (site GCCGAGTCTAA),0.191
20,GCCGAGTCTTGGGTTCTAACCTGTTGCTC (site GCCGAGTCTCA),0.0833
21,GCCGAGTCTTGGGTTCTAACCTGTTGCTC (site GCCGAGTCTGA),1.2
22,GCCGAGTCTTGGGTTCTAACCTGTTGCTC (site GCCGAGTCTTA),0.371

row,Sequence,recombinant barcode read abundance (log10)
1,GCCGATCCTTGGGTTCTAACCTGTTGCCT (site GACGATCCTAG),0.332
2,GCCGATCCTTGGGTTCTAACCTGTTGCCT (site GCCGATCCTAG),0.12
3,GCCGATCCTTGGGTTCTAACCTGTTGCCT (site GGCGATCCTAG),0.205
4,GCCGATCCTTGGGTTCTAACCTGTTGCCT (site GTCGATCCTAG),0.0291
5,GCCGCGCCTTGGGTTCTAACCTGTTGCAG (site GCCACGCCTCT),0.0533
6,GCCGCGCCTTGGGTTCTAACCTGTTGCAG (site GCCCCGCCTCT),0.271
7,GCCGCGCCTTGGGTTCTAACCTGTTGCAG (site GCCGCGCCTCT),0.116
8,GCCGCGCCTTGGGTTCTAACCTGTTGCAG (site GCCTCGCCTCT),0.13
9,GCCGCTCCTTGGGTTCTAACCTGTTGCCT (site GCCGCTCCTAG),0.163
10,GCCGCTCCTTGGGTTCTAACCTGTTGCCT (site GCGGTTCCTAG),0.098
11,GCCTATGCTTGGGTTCTAACCTGTTGCCT (site GACTATGCTAG),0.115
12,GCCTATGCTTGGGTTCTAACCTGTTGCCT (site GCCTATGCTAG),0.852
13,GCCTATGCTTGGGTTCTAACCTGTTGCCT (site GGCTATGCTAG),0.0448
14,GCCTATGCTTGGGTTCTAACCTGTTGCCT (site GTCTATGCTAG),0.0718
15,GCCTCTTCTTGGGTTCTAACCTGTTGCCT (site GCCTCTTCTAG),0.426
16,GCCTCTTCTTGGGTTCTAACCTGTTGCCT (site GTCTCTACTAG),0.0556
17,GCCTGGTCTTGGGTTCTAACCTGTTGCCT (site GCCTGGTCTAG),1.01
18,GCCTGGTCTTGGGTTCTAACCTGTTGCCT (site TCCTCGTCTAG),0.122
19,GCGACGCCTTGGGTTCTAACCTGTTGCCT (site ACGAAGCCTAG),0.0187
20,GCGACGCCTTGGGTTCTAACCTGTTGCCT (site GCGACGCCTAG),1.26
21,GCGACTCCTTGGGTTCTAACCTGTTGCCT (site GCGACTCCTAA),0.215
22,GCGACTCCTTGGGTTCTAACCTGTTGCCT (site GCGACTCCTAG),0.699

row,Sequence,recombinant barcode read abundance (log10)
1,GCGATCCCTTGGGTTCTAACCTGTTGCTT (site CATGAGACTCC),0.0103
2,GCGATCCCTTGGGTTCTAACCTGTTGCTT (site GCGATCCCTAA),0.798
3,GCGCACCCTTGGGTTCTAACCTGTTGCAG (site CTGCACCCTCT),0.0518
4,GCGCACCCTTGGGTTCTAACCTGTTGCAG (site GCGCACCCTCT),1.15
5,GCGCATGCTTGGGTTCTAACCTGTTGCCT (site GCGCATGCTAG),0.788
6,GCGCATGCTTGGGTTCTAACCTGTTGCCT (site GTGCCTGCTAG),0.41
7,GCGCCCTCTTGGGTTCTAACCTGTTGCCT (site ACGCCCTCTAG),0.0862
8,GCGCCCTCTTGGGTTCTAACCTGTTGCCT (site GCGCCCTCTAG),0.7
9,GCGCGAACTTGGGTTCTAACCTGTTGCCT (site GCACGAACTAG),0.733
10,GCGCGAACTTGGGTTCTAACCTGTTGCCT (site GCCCGAACTAG),0.047
11,GCGCGAACTTGGGTTCTAACCTGTTGCCT (site GCGCGAACTAG),0.608
12,GCGCGAACTTGGGTTCTAACCTGTTGCCT (site GCTCGAACTAG),0.125
13,GCGGAATCTTGGGTTCTAACCTGTTGCCT (site GCGGAATCTAG),1.28
14,GCGGAATCTTGGGTTCTAACCTGTTGCCT (site TCGGAATCTAG),0.469
15,GCGGACGCTTGGGTTCTAACCTGTTGCCT (site CCGGACCCTAG),0.0428
16,GCGGACGCTTGGGTTCTAACCTGTTGCCT (site GCGGACGCTAG),1.72
17,GCGGGTCCTTGGGTTCTAACCTGTTGCGT (site GCGGGTCCTAC),2.98
18,GCGGGTCCTTGGGTTCTAACCTGTTGCGT (site GCTGCTCCTAC),0.0517
19,GCGGTTCCTTGGGTTCTAACCTGTTGCCT (site GCCGCTCCTAG),0.139
20,GCGGTTCCTTGGGTTCTAACCTGTTGCCT (site GCGGTTCCTAG),1.96
21,GCGTATCCTTGGGTTCTAACCTGTTGCCT (site GCGAATCCTAG),0.127
22,GCGTATCCTTGGGTTCTAACCTGTTGCCT (site GCGCATCCTAG),0.0623

row,Sequence,recombinant barcode read abundance (log10)
1,GCGTATCCTTGGGTTCTAACCTGTTGCCT (site GCGGATCCTAG),0.23
2,GCGTATCCTTGGGTTCTAACCTGTTGCCT (site GCGTATCCTAG),0.93
3,GCGTCGTCTTGGGTTCTAACCTGTTGCCT (site GCATCGTCTAG),0.134
4,GCGTCGTCTTGGGTTCTAACCTGTTGCCT (site GCCTCGTCTAG),0.193
5,GCGTCGTCTTGGGTTCTAACCTGTTGCCT (site GCGTCGTCTAG),0.0822
6,GCGTCGTCTTGGGTTCTAACCTGTTGCCT (site GCTTCGTCTAG),0.229
7,GCGTCTCCTTGGGTTCTAACCTGTTGCAT (site GCGACTCCTAT),0.209
8,GCGTCTCCTTGGGTTCTAACCTGTTGCAT (site GCGCCTCCTAT),0.012
9,GCGTCTCCTTGGGTTCTAACCTGTTGCAT (site GCGGCTCCTAT),0.0731
10,GCGTCTCCTTGGGTTCTAACCTGTTGCAT (site GCGTCTCCTAT),0.335
11,GCGTTTGCTTGGGTTCTAACCTGTTGCCT (site GAGTTTGCTAG),0.106
12,GCGTTTGCTTGGGTTCTAACCTGTTGCCT (site GCGTTTGCTAG),1.01
13,GCGTTTGCTTGGGTTCTAACCTGTTGCCT (site GGGTTTGCTAG),0.0501
14,GCGTTTGCTTGGGTTCTAACCTGTTGCCT (site GTGTTTGCTAG),0
15,GCTAACACTTGGGTTCTAACCTGTTGCCT (site ACTAACACTAG),0.2
16,GCTAACACTTGGGTTCTAACCTGTTGCCT (site CCTAACACTAG),0.153
17,GCTAACACTTGGGTTCTAACCTGTTGCCT (site GCTAACACTAG),1.37
18,GCTAACACTTGGGTTCTAACCTGTTGCCT (site TCTAACACTAG),0.075
19,GCTAACCCTTGGGTTCTAACCTGTTGCGT (site GCGAACCCTCC),0
20,GCTAACCCTTGGGTTCTAACCTGTTGCGT (site GCTAACCCTAC),3.05
